Measurements published in ChEMBL document CHEMBL3885881, “DrugMatrix”.

Species on record: Rattus norvegicus
Assay: DrugMatrix - Regimen: Daily Repeat
Format: toxicity, organism-based, Sprague-Dawley
Design: regimen Daily Repeat, gender Male, age 6-8 weeks
Settings: in vivo, po, route oral GAVAGE, vehicle .5 % CMC; for BASOPHIL / EOSINOPHIL / ERYTHROCYTE COUNT / HEMATOCRIT / HEMOGLOBIN / LYMPHOCYTE / MEAN CORPUSCULAR HEMOGLOBIN / MEAN CORPUSCULAR HEMOGLOBIN CONCENTRATION / MEAN CORPUSCULAR VOLUME / MONOCYTE / NEUTROPHIL / PLATELET COUNT: tissue Blood; for ALANINE AMINOTRANSFERASE / ALBUMIN / ALKALINE PHOSPHATASE / ASPARTATE AMINOTRANSFERASE / BLOOD UREA NITROGEN / CHLORIDE / CHOLESTEROL / CREATINE PHOSPHOKINASE / CREATININE / GLUCOSE / PHOSPHORUS / POTASSIUM / SODIUM / TOTAL BILIRUBIN / TOTAL PROTEIN: tissue Plasma
[1] = 10 mg/kg, 120 h, dose level Low, time 5 day
[2] = 750 mg/kg, 72 h, dose level High, time 3 day
[3] = 750 mg/kg, 120 h, dose level High, time 5 day

Q: What does the source list for `OCCN(CCO)c1nc(N2CCCCC2)c2nc(N(CCO)CCO)nc(N3CCCCC3)c2n1` [DIPYRIDAMOLE]?
A: BASOPHIL [1]: 0%; EOSINOPHIL [1]: 0.5%; ERYTHROCYTE COUNT [1]: 6.79 x10E6/uL; HEMATOCRIT [1]: 39%; HEMOGLOBIN [1]: 15.6 G/DL; LYMPHOCYTE [1]: 87%; MEAN CORPUSCULAR HEMOGLOBIN [1]: 23 pg; MEAN CORPUSCULAR HEMOGLOBIN CONCENTRATION [1]: 40.05 G/DL; MEAN CORPUSCULAR VOLUME [1]: 57.45 fL; MONOCYTE [1]: 0.5%; NEUTROPHIL [1]: 12%; PLATELET COUNT [1]: 1171.5 x10E3/uL; ALANINE AMINOTRANSFERASE [1]: 35 u/L; ALBUMIN [1]: 3.8 G/DL; ALKALINE PHOSPHATASE [1]: 332.33 u/L; ASPARTATE AMINOTRANSFERASE [1]: 57 u/L; BLOOD UREA NITROGEN [1]: 15 mg/dL; CHLORIDE [1]: 100.67 MEQ/L; CHOLESTEROL [1]: 70.33 mg/dL; CREATINE PHOSPHOKINASE [1]: 146.33 u/L; CREATININE [1]: 0.6 mg/dL; GLUCOSE [1]: 207 mg/dL; PHOSPHORUS [1]: 11.67 mg/dL; POTASSIUM [1]: 5.6 MEQ/L; SODIUM [1]: 143.67 MEQ/L; TOTAL BILIRUBIN [1]: 0.43 mg/dL; TOTAL PROTEIN [1]: 6.33 G/DL; BASOPHIL [2]: 0%; EOSINOPHIL [2]: 0.33%; ERYTHROCYTE COUNT [2]: 6.25 x10E6/uL; HEMATOCRIT [2]: 37.2%; HEMOGLOBIN [2]: 14.47 G/DL; LYMPHOCYTE [2]: 88.33%; MEAN CORPUSCULAR HEMOGLOBIN [2]: 23.2 pg; MEAN CORPUSCULAR HEMOGLOBIN CONCENTRATION [2]: 38.9 G/DL; MEAN CORPUSCULAR VOLUME [2]: 59.57 fL; MONOCYTE [2]: 1%; NEUTROPHIL [2]: 10.33%; PLATELET COUNT [2]: 1166.33 x10E3/uL; ALANINE AMINOTRANSFERASE [2]: 38 u/L; ALBUMIN [2]: 3.6 G/DL; ALKALINE PHOSPHATASE [2]: 276.67 u/L; ASPARTATE AMINOTRANSFERASE [2]: 56.33 u/L; BLOOD UREA NITROGEN [2]: 13.33 mg/dL; CHLORIDE [2]: 99 MEQ/L; CHOLESTEROL [2]: 75.67 mg/dL; CREATINE PHOSPHOKINASE [2]: 140 u/L; CREATININE [2]: 0.53 mg/dL; GLUCOSE [2]: 163.67 mg/dL; PHOSPHORUS [2]: 11.63 mg/dL; POTASSIUM [2]: 6.2 MEQ/L; SODIUM [2]: 143 MEQ/L; TOTAL BILIRUBIN [2]: 0.3 mg/dL; TOTAL PROTEIN [2]: 5.77 G/DL; BASOPHIL [3]: 0%; EOSINOPHIL [3]: 0%; ERYTHROCYTE COUNT [3]: 6.47 x10E6/uL; HEMATOCRIT [3]: 38.13%; HEMOGLOBIN [3]: 15 G/DL; LYMPHOCYTE [3]: 90.33%; MEAN CORPUSCULAR HEMOGLOBIN [3]: 23.2 pg; MEAN CORPUSCULAR HEMOGLOBIN CONCENTRATION [3]: 39.33 G/DL; MEAN CORPUSCULAR VOLUME [3]: 58.97 fL; MONOCYTE [3]: 0.33%; NEUTROPHIL [3]: 9.33%; PLATELET COUNT [3]: 1245.33 x10E3/uL; ALANINE AMINOTRANSFERASE [3]: 40 u/L; ALBUMIN [3]: 3.73 G/DL; ALKALINE PHOSPHATASE [3]: 320.33 u/L; ASPARTATE AMINOTRANSFERASE [3]: 55 u/L; BLOOD UREA NITROGEN [3]: 13.33 mg/dL; CHLORIDE [3]: 98.33 MEQ/L; CHOLESTEROL [3]: 72 mg/dL; CREATINE PHOSPHOKINASE [3]: 136.67 u/L; CREATININE [3]: 0.57 mg/dL; GLUCOSE [3]: 158 mg/dL; PHOSPHORUS [3]: 10.37 mg/dL; POTASSIUM [3]: 6.03 MEQ/L; SODIUM [3]: 144 MEQ/L; TOTAL BILIRUBIN [3]: 0.4 mg/dL; TOTAL PROTEIN [3]: 5.97 G/DL
